# Results: US11541041B1, “Compounds that interact with the Ras superfamily for the treatment of cancers, inflammatory diseases, Rasopathies, and fibrotic disease” (Shy Therapeutics LLC, priority 2017, dated 2023)
# Like-named read-outs stand apart in the source and are kept apart here.
# Tests used:
# [1] = tested on: MIA-PACA2 pancreatic cancer cell lines; assay: Cell proliferation assay, alternate assay conditions (DAPI staining); assay type: cell-based; details: Homo sapiens, MIA PaCa-2; for inhibition at 10 µM: * = tested at 10 μM, alternate conditions, MIA-PACA2
# Protocol: (§1) Cell lines: Tumor-derived pancreatic cancer cell lines MIA-PACA2 were purchased from ATCC and grown in complete DMEM-High Glucose medium supplemented with penicillin (100 U/mL), streptomycin (100 μg/mL), and 10% heat-inactivated FBS at 37° C. in a humidified incubator with 5% CO2.
# Method: Cells are plated at 4000 cells/well density in 96-wells plate. The next day tested small molecules are added to the cells in the final concentration of 10 μM in the presence of 0.3% DMSO and 10% FBS. After small molecules addition, cells are incubated for 4 days at 37° C. in a humidified incubator with 5% CO2. For IC50 value determination, serial dilutions of compounds were added to cells under the same conditions.
# Assay: At the end of the incubation period, cell cultures are fixed with a 50-50 mixture (v/v) acetone-methanol for 10 minutes at −20° C., followed by rehydration in PBS for 10 minutes at room temperature. After rehydration, cells are stained with DAPI (1 μg/ml) in PBS for 10 minutes at room temperature, followed by 3 washes with PBS. After staining, DAPI fluorescence is recorded (358 nm excitation/461 nm emission) with the 96-well plate reader Molecular Devices Spectramax M3; degree of small mole-cule-dependent proliferation inhibition is calculated from raw data assuming No Serum cells value as 100%.
# [2] = target: KRas G12D/Q61H double mutant (Homo sapiens (Human), UniProt P01116, G12D/Q61H); assay: Ras GTP binding domain inhibition assay; details: 20 μM compound; read-out: % Inhibition at 20 μM, KRas G12D Q61H
# Sequence of KRas G12D/Q61H double mutant (P01116-2 other isoform, or with tags, fused parts or gaps G12D/Q61H): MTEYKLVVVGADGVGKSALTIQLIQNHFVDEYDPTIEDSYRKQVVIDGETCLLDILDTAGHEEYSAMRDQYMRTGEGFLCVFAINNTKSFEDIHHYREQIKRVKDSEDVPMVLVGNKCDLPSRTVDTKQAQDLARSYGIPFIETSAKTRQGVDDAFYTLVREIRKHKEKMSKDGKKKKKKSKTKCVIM
# Protocol: (§2) Buffer-I: • 50 mM Tris, pH 7.5 • 150 mM NaCl (optional) • 1 mM MgCl2 • 1 mM DTT. • KRas G12D mutant protein was expressed as a His-tagged protein. Purified His-KRas G12D protein was diluted in buffer-I to a final concentration of 3-10 μg/ml. • 200 μl of the diluted His-KRas G12D protein was added to a nickel coated 96 well plate and incubated overnight at 4° C. • The next day, wells were washed 3× in 200 μl of Buffer-I. • Then 200 μl of Buffer-I were added to each well in the presence of 1% DMSO. • Tested compounds were added to the protein-coated wells at a concentration of 20 μM, and incubated for 3 hours at room temperature. While performing IC50 measurements a serial dilution of all tested concentrations was prepared.
# (§3) Then 22 μl of Cy3-GTP or Cy5-GTP was added to each well. The labeled GTP was incubated for 45 min. at room temperature. • Following GTP incubation, wells were washed 3× in Buffer-I, and 200 μl of Buffer-I were added to each well. • Following washes, the amount of bound labeled-GTP was measured with an Eppendorf AF2200 plate reader.
# (§4) By substituting KRas G12D mutant protein with KRas G12C mutant, KRas wild type, KRas Q61H mutant, KRas G12D/Q61H double mutant or KRas G12C/Q61H double mutant under the assay conditions described above, KRas G12C mutant KRas wild type, KRas Q61H mutant, KRas G12D/Q61H double mutant and KRas G12C/Q61H double mutant inhibition, respectively, were each determined.
# [3] = target: KRas G12C/Q61H double mutant (Homo sapiens (Human), UniProt P01116, G12C/Q61H); assay: Ras GTP binding domain inhibition assay; details: 20 μM compound
# Sequence of KRas G12C/Q61H double mutant (P01116-2 other isoform, or with tags, fused parts or gaps G12C/Q61H): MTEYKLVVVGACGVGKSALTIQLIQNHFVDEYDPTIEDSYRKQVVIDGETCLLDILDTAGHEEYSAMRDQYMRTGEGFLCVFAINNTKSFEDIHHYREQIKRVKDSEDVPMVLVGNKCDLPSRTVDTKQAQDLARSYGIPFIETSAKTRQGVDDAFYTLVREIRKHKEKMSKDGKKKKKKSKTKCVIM
# Protocol: as §2, §3, §4
# KRas Q61H mutant = KRas Q61H mutant (Homo sapiens (Human), UniProt P01116, Q61H); assay: Ras GTP binding domain inhibition assay; details: 20 μM compound
# Sequence of KRas Q61H mutant (P01116-2 other isoform, or with tags, fused parts or gaps Q61H): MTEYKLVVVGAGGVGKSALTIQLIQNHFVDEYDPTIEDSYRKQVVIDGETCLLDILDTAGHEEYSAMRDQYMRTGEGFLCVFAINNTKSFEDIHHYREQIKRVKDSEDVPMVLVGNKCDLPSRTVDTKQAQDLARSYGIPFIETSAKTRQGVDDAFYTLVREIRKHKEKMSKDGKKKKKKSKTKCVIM
# Protocol: as §2, §3, §4
# [4] = tested on: MIA-PACA2 pancreatic cancer cell lines; assay: Cell proliferation assay (CellTiter 96 AQueous One); assay type: cell-based; details: Homo sapiens, MIA PaCa-2; for inhibition at 30 µM: MIA-PACA2
# Protocol: as §1
# Method: Cells are plated at 1000 cells/well density in 96-wells plate, starved ON, and the next day tested small molecules are added to the cells in the final concentration of 30 μM with 0.3% DMSO 3 hours prior to 10% FBS addition. After serum addition cells are incubated for 6 days at 37° C. in a humidified incubator with 5% CO2. For IC50 value determination, serial dilutions of compounds were added to cells under the same conditions.
# Assay: At the end of the incubation period, cell cultures are tested using the CellTiter 96® AQueous One Solution Cell Proliferation Assay kit (Promega Corporation, Madison, Wis.) according to the manufacturer specifications. Briefly, assay is performed by adding 20 μl of the CellTiter 96 Aqueous One Solution Reagent directly to culture wells, followed by for 1-4 hours incubation at 37° C. in a humidified incubator with 5% CO2. At the end of incubation time, absorbance at 492 nm is recorded with the 96-well plate reader Eppendorf AF2200, and degree of small molecule-dependent proliferation inhibition is calculated from raw data assuming No Serum cells value as 100%.
# KRas G12D mutant protein = KRas G12D mutant protein (Homo sapiens (Human), UniProt P01116, G12D); assay: Ras GTP binding domain inhibition assay
# Sequence of KRas G12D mutant protein (P01116-2 other isoform, or with tags, fused parts or gaps G12D): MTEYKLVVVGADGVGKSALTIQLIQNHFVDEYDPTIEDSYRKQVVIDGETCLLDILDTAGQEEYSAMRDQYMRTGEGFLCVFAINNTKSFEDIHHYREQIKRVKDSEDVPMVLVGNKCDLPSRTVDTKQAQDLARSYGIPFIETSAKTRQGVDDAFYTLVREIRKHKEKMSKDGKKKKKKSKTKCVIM
# Protocol: The following method was developed as specific assay for KRas G12D mutant protein.
# as §2, §3
# KRas wild type = KRas wild type (Homo sapiens (Human), UniProt P01116); assay: Ras GTP binding domain inhibition assay; details: 20 μM compound
# Sequence of KRas wild type (P01116-2 other isoform, or with tags, fused parts or gaps): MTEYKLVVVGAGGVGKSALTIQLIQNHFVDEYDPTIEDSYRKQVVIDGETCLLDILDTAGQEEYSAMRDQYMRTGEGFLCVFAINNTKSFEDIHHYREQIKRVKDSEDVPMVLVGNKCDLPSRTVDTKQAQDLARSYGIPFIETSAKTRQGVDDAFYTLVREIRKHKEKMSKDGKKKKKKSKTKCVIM
# Protocol: as §2, §3, §4
# KRas G12C mutant = KRas G12C mutant (Homo sapiens (Human), UniProt P01116, G12C); assay: Ras GTP binding domain inhibition assay; details: 20 μM compound
# Sequence of KRas G12C mutant (P01116-2 other isoform, or with tags, fused parts or gaps G12C): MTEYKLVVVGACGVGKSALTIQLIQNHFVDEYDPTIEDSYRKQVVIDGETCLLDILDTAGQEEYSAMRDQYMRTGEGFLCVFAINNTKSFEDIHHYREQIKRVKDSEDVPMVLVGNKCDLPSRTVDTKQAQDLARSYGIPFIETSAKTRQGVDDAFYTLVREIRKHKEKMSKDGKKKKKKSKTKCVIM
# Protocol: as §2, §3, §4
# [5] = tested on: MAPK phosphorylation in PANC-1 pancreatic cancer cell line; assay: MAPK cell-based phosphorylation assay (cell-direct ELISA, EGF-stimulated); details: Homo sapiens, 30 μM
# Protocol: Cell lines: Tumor-derived pancreatic cancer cell lines PANC-1 were purchased from ATCC and were maintained according to ATCC recommendation.
# Method: Cells were plated at 7500 cells/well density in 96-wells plate, starved over night, and the small molecules to be tested were added to the cells in the final concentration of 30 μM with 0.3% DMSO for 6 hours incubation at 37° C. For IC50 value determination, serial dilutions of compounds were added to cells under the same conditions. Next, cells were stimulated with 1.5 ng/ml EGF for 15 min. followed by cell fixation with 4% Formaldehyde in PBS at RT for 20 min. Phosphorylation level of MAPK was determined by Cell-direct ELISA.
# Cell-direct ELISA: For each well, cells were permeabilized with PBS-Triton 0.1%, quenched with H2O2 0.6% in PBS-Triton 0.1%, and probed with anti-phospho-MAPK antibodies (R&D Systems) followed by HRP-conjugated secondary antibody (Jackson Immunoresearch, West Grove, Pa.). Next, a solution 50 μM of the fluorescent substrate AmpliFlu Red (Sigma) was added and incubated at RT for 20 min. At the end of the incubation time, fluorescence was measured at 595 nm on a microplate reader (AF2200; Eppendorf, Inc., Hamburg, Germany).
# Rho-A = Rho-A (Homo sapiens (Human), UniProt P61586); assay: Rac and Rho inhibition assay; assay type: binding; details: read-out: Rho-A % Inh.
# Sequence of Rho-A (P61586 whole entry): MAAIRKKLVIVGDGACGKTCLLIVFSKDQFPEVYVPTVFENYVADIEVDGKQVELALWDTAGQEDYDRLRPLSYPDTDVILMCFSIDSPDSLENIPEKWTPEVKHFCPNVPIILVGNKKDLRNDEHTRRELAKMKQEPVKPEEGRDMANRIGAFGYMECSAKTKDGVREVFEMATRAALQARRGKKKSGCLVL
# Protocol: as §2, §3
# (§5) By substituting KRas G12D mutant protein with either Rac-1 or Rho-A under the assay conditions described in Example 5, Rac-1 and Rho-A inhibition, respectively, were each determined.
# Rac-1 = Rac-1 (Homo sapiens (Human), UniProt P63000); assay: Rac and Rho inhibition assay; assay type: binding; details: read-out: Rac-1 % Inh.
# Protocol: as §2, §3, §5
# [6] = 20 μM compound, read-out: % Inhibition at 20 μM, KRas G12D
compound,measurement,setting,value
SOCCNc1nc(-c2ccccn2)nc2sc(-c3ccccc3)c(-c3ccccn3)c12,inhibition at 10 µM,[1],76 to 100%
O=c1[nH]c(-c2ccccn2)nc2c(C3O[C@H](CO)[C@@H](O)[C@H]3O)csc12 (some centres unmarked),inhibition at 10 µM,[1],76 to 100%
Cc1nc(-c2cn(C)cn2)nc2sc(-c3ccc(CNC(=O)OC(C)(C)C)cc3)c(-c3ccccc3)c12,inhibition at 20 µM,[2],1 to 25%
same,inhibition at 20 µM,[3],1 to 25%
same,inhibition at 20 µM,KRas Q61H mutant,1 to 25%
COc1ccc(CCNC(=O)c2csc3nc(-c4ccccn4)nc(N4CCSCC4)c23)cn1 [drawing 1763],inhibition at 30 µM,[4],51 to 75%
Cc1cccc(-c2c(C)sc3c(O)nc(-c4nccn4C)nc23)c1,inhibition at 20 µM,KRas G12D mutant protein; [6],1 to 25%
same,inhibition at 20 µM,KRas wild type,1 to 25%
same,inhibition at 20 µM,KRas G12C mutant,1 to 25%
COCCNc1nc(-c2nccn2C)nc2sc(-c3ccccc3)c(-c3ccccc3)c12 [drawing 3568],"% Inhibition at 20 μM, KRas wild type",KRas wild type,A (A = 1-25% inhibition)
same,"% Inhibition at 20 μM, KRas G12C",KRas G12C mutant,C (C = 51-75% inhibition)
same,inhibition at 20 µM,[3],51 to 75%
same,inhibition at 20 µM,KRas Q61H mutant,51 to 75%
COCC(C)Nc1nc(-c2ccccn2)nc2sc(-c3ccncc3)c(-c3ccccc3)c12 (centres unmarked),inhibition at 10 µM,[1],51 to 75%
O=C(Nc1nnc(-c2ccccc2)[nH]1)c1ncoc1-c1cccs1,inhibition at 30 µM,[5],25 to 50%
CC(O)ONc1nc(-c2nccn2C)nc2sc(-c3ccccc3)c(-c3ccccc3)c12 (centres unmarked),inhibition at 20 µM,"KRas G12D mutant protein; at 20 μM, read-out: KRas G12D % Inh.",1 to 25%
same,inhibition at 20 µM,Rho-A,25 to 50%
same,inhibition at 20 µM,Rac-1,25 to 50%
COCCOc1nc(-c2ccncn2)nc2sc(-c3ccccc3)c(-c3ccccc3)c12,inhibition at 20 µM,KRas G12D mutant protein; [6],0%
same,inhibition at 20 µM,KRas wild type,1 to 25%
same,inhibition at 20 µM,KRas G12C mutant,1 to 25%
Cc1nc(-c2nccn2C)nc2sc(-c3ccccc3)c(-c3ccccc3)c12,inhibition at 20 µM,[2],1 to 25%
same,inhibition at 20 µM,[3],1 to 25%
same,inhibition at 20 µM,KRas Q61H mutant,1 to 25%
COc1nc(-c2ccccn2)nc2c(-c3cccc(O)c3)csc12,inhibition at 10 µM,[1],76 to 100%
O=C(Nc1nnc(-c2ccccc2)[nH]1)C1CCCC1,inhibition at 30 µM,[5],1 to 25%
COOCCNc1nc(-c2nccn2C)nc2sc(-c3ccccc3)c(-c3ccccc3)c12,inhibition at 10 µM,[1],76 to 100%
same,IC50,"[1]; MIA-PACA2 proliferation, same assay as % inhibition (alternate conditions)",501 to 1000 nM
Nc1nc(-c2ccccn2)nc2c(-c3ccccn3)csc12,inhibition at 10 µM,[1],76 to 100%
same,inhibition at 30 µM,[4],76 to 100%
same,IC50,"[4]; MIA-PACA2 proliferation, compound tested under both conditions, IC50 assay conditions not specified",> 1000 nM
COc1nc(-c2ccccn2)nc2c(-c3cc(CN4CCCC4)ccc3F)csc12,inhibition at 10 µM,[1],76 to 100%
